# Assay results from patent publication US11274144B2, “Compositions and methods for the removal of biofilms” (priority 2013, dated 2022).
# Experiments:
# NTHI biofilms = experiment: synergism on pre-formed NTHI biofilms (FIGS. 14A-14C); format: cell-based
# Experimental: To this end the ability to induce augmented structural destabilization of pre-formed NTHI biofilms was assessed when a sub-optimal concentration of anti-IHF was used along with one of each of three unique reagents.
# IHF = biological target: T1, IHF (Escherichia coli, UniProt P0A6X7+P0A6Y1); experiment: antibody response after subcutaneous immunization of chinchillas (Western blot, ELISA); format: in vivo, E. coli; details: chinchilla
# T1 construct: IHF promoter purified from E. coli K12 (the full length combination of both IHF subunits); made in house; host or cells: E. coli overproducing strains (lambda PL promoter plasmids, e.g. K5746 / E738)
# Description: Each animal received a priming dose followed by two identical boosts delivered at 30-day intervals.
# NTHI strain 86-028NP = tested on: NTHI strain 86-028NP
# Experimental: 48 adults were ordered from Rauscher's Chinchilla Ranch (LaRue, Ohio) and were acclimated to the vivarium for 7-10 days prior to the beginning of the study. Prior to TB [transbullar or direct challenge into the middle ear cavity] challenge, baseline otoscopy and tympanometry were performed as well as a limited volume prebleed to collect serum. Chinchillas were anesthetized and 300 μl of NTHI (strain #86-028NP) suspension containing approximately 1000 cfu were introduced into the middle ear space via transbullar challenge. Animals were allowed to recover, then monitored daily for adverse reactions as per IACUC accepted animal use protocols. Routine otoscopy and tympanometry were performed every 2-3 days throughout the study.
# Four days after challenge (day +4), chinchillas were anesthetized and a CT scan was performed to visualize biofilms present within the middle ear and to obtain pre-immunization images. The surface of the pinnae were cleaned and hydrated by wiping with a sterile gauze pad moistened with sterile pyrogen free saline. After ˜2 minutes (to allow the pinnae to dry), 50 μl of either the dmLT, IHF (purified E. coli IHF according to Experiment 1)+dmLT, or IHF+rsPiLA+dmLT solution will be added to the pinna and gently massaged in. Three chinchillas per cohort were sacrificed and tissues/samples collected (on days +4, and +11) to begin to determine mechanism of action.
# Eleven days after challenge (day +11), the secondary immunization occurred as described above wherein the pinnae are cleaned/hydrated and immunogens were topically administered. Three chinchillas per cohort were sacrificed and tissues/samples collected to begin to determine mechanism of action.
# Eighteen days after challenge (day +18), chinchillas were anesthetized and a CT scan were performed to identify any biofilms present, as well as to compare to the pre-immunization CT scans. The animals were then bled to collect serum and euthanized. […] Images were collected and the bulla were washed with 1 ml of sterile saline and re-imaged. The mucosa, along with any biofilm present, were collected from the right bulla and placed in a preweighed tube. These tissues were homogenized, serially diluted, and plated to determine cfu NTHI/mg wet weight tissue. The left bullae were filled with OCT compound and snap frozen for histological analysis.
# Images of the left and right middle ear cavities, with resident biofilms, were scrambled and two images per animal were compiled into a single file for ranking by blinded evaluators. The relative amount of biomass remaining within the middle ear of each animal was ranked on a 0 to 4+ scale by blinded reviewers using the scale shown in Table 6 below. Titer ELISAs, cytokine arrays, and Biacore were run on the serum as well as on the collected middle ear effusions. The OCT embedded middle ears were sectioned and stained either for basic morphology and architecture (H&E) or for the presence of IHF using immunohistochemistry and/or immunofluorescence.
# For the second animal immunization study, twenty adult chinchillas (body mass between 500-700 g), shown to have no evidence of middle ear disease by tympanometry and video otoscopy, were enrolled and divided into four cohorts of 5 animals each. All animals were again challenged transbullarly with approximately 1000 CFU NTHI strain 86-028NP per bulla. Four days later, after a biofilm formed in the middle ear cavities of these animals, they were immunized by a transcutaneous route (TCI) as described above. Formulations consisted of either: 10 μg IHF admixed with 10 μg dmLT, 10 μg IHF that had been pre-bound to DNA+dmLT, DNA+dmLT, or 10 μg dmLT alone.
# Middle ears were again subsequently scored from 0 to 4+ for disease severity upon completion of the study.
# dsDNA = details: DNA (10 μM) to IHF (5 μM); FIG. 11
# Experimental: Middle ears were again subsequently scored from 0 to 4+ for disease severity upon completion of the study. To better assure that the IHF and DNA remained in complex for immunization, synthetic oligonucleotides identical to those used in the published co-crystallization study (see for e.g., Rice et al. (1996) Cell 87(7): 1295-1306) of a high affinity IHF binding site from the bacteriophage lambda recombination site attP at a molar ratio of 2:1 [DNA (10 μM) to IHF (5 μM)] was used.
# [1] = BIACORE epitope mapping with antiserum of chinchillas immunized with IHF pre-complexed to DNA; format: binding, chinchilla; details: BIACORE biosensor
# Description: (§1) To test this hypothesis, additional cohorts of chinchillas were immunized with either native full length IHF from E. coli (obtained from Nash) or with native full length IHF from E. coli (obtained from Nash) that had been complexed to an excess of double stranded DNA in order to best mimic how it would be presented in nature.
# [2] = BIACORE epitope mapping with antiserum of chinchillas immunized with native IHF; format: binding, chinchilla; details: BIACORE biosensor
# Description: as §1
# [3] = biological target: Haemophilus influenzae IHF (Haemophilus influenzae, UniProt P43723); details: also known as IhfA5; cited from earlier work
# Staphylococcus aureus HU = Staphylococcus aureus HU (Staphylococcus aureus, UniProt Q5HFV0); details: cited from earlier work
# [4] = amoxicillin 64 μg/ml, IHF antisera 1:50 dilution
# [5] = first study, transcutaneous immunization
# T1 sequence (P0A6X7 2-99): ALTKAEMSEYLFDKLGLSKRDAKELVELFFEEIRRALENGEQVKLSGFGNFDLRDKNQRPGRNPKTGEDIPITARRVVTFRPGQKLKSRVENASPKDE
# T1 sequence (P0A6Y1 whole entry): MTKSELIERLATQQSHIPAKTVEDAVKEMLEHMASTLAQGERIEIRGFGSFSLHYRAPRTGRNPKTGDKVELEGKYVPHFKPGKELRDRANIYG
molecule,measurement,setting,value
CC1(C)S[C@@H]2[C@H](NC(=O)[C@H](N)c3ccc(O)cc3)C(=O)N2[C@H]1C(=O)O [amoxicillin],"bacterial cell death in biofilm (vital dye, FIG. 14C)",NTHI biofilms; [4],limited bacterial cell death
same,effect on architecture/height of pre-formed NTHI biofilm (FIG. 14C),NTHI biofilms; [4],no measurable effect on the architecture
DNase,effect on pre-formed NTHI biofilm (FIG. 14A),"NTHI biofilms; DNase at sub-optimal concentration, anti-IHF 1:200 dilution",marginal effect
"E. coli IHF: purified E. coli integration host factor, full length combination of both subunits, used as immunogen with adjuvant",reciprocal titer versus isolated IHF by ELISA,"IHF; SQ immunization 10 μg with MPL, pre-immune reciprocal titers 100",8000
same,antibodies recognizing IHF by Western blot,"IHF; SQ immunization with MPL, FIG. 13",strong immune response to isolated IHF
same,mean score for remaining biomass within the middle ears,"NTHI strain 86-028NP; first study, 2 weekly transcutaneous immunizations with dmLT adjuvant, day 18 after challenge, adjuvant only 2.8, 0 to 4+ scale",1.5
same,bacterial load within remaining biomass,"NTHI strain 86-028NP; first study, homogenized biomass cultured on chocolate agar, vs adjuvant alone, FIG. 10B",statistically significant reduction of bacterial load
same,immune response to immunization,NTHI strain 86-028NP; [5],strong local and systemic immune response
same,secondary sequelae of immunization noted upon necropsy,NTHI strain 86-028NP; [5],no animal presented with obvious secondary sequelae
same,resolution of experimental otitis media,NTHI strain 86-028NP; in vivo,eradicating experimental otitis media significantly earlier than controls
same,mean residual middle ear biomass score,"NTHI strain 86-028NP; second study, TCI, 10 μg with 10 μg dmLT, adjuvant alone 2.2, 0 to 4+ scale, FIG. 12",0.9
same,binding of dsDNA (reduced mobility),dsDNA,bound dsDNA
"FLEEIRLSLESGQDVKLSGF (listed as Haemophilus influenzae) [A3, amino acids 31 to 50 of IHF]",immune recognition of 20-mer peptides,[1],greatest recognition
"RGFGSFSLHHRQPRLGRNPK (listed as Haemophilus influenzae) [B4, 46 to 65 of IHF]",immune recognition of 20-mer peptides,[2],greatest immune recognition
"RPGRNPKTGDVVPVSARRVV (listed as Haemophilus influenzae) [A5, amino acids 61 to 80 of IHF]",immune recognition of 20-mer peptides,[2],greatest immune recognition
"TRL295: antibody, HC SEQ ID NO: 413, LC SEQ ID NO: 414 (antibody, V domains shown) VH: QVQLVESGGGLVQPGGSLRLSCAASGFPFSSYAMSWVRQAPGKGLEWVSAISGNGADSYYADSVKGRFTTSRDKSKNTVYLQMNRLRAEDTAVYYCAKDMRRYHYDSSGLHFWGQGTLVTVSS VL: DIELTQAPSVSVYPGQTARITCSGDALPKQYAYWYQQKPGQAPVVVIYKDSERPSGISERFSGSSSGTTVTLTISGVQAGDEADYYCQSVDTSVSYYVVFGGGTKLTVL",epitope bound,[3],bind to residues 61-80
"TRL1338: antibody, HC SEQ ID NO: 445, LC SEQ ID NO: 446 (antibody, V domains shown) VH: QVQLTLRESGPTLVKPTQTLTLTCTFSGFSLSTNGVGVGWIRQPPGKALEWLAIIYWDDDKRYSPSLKSRLTITKDTSKNQVVLTLTNMDPVDTGTYYCAHILGASNYWTGYLRYYFDYWGQGTLVTVST VL: DIEMTQSPSVSVSPGQTARITCSGEPLAKQYAYWYQQKSGQAPVVVIYKDTERPSGIPERFSGSSSGTTVTLTISGVQAEDEADYHCESGDSSGTYPVFGGGTKLTVL",binding for fragment VPAFKAGKALKDAVK,Staphylococcus aureus HU; SEQ ID NO: 456,high affinity binding
"TRL1330: antibody, HC SEQ ID NO: 439, LC SEQ ID NO: 440 (antibody, V domains shown) VH: QVQLVESGTEVKNPGASVKVSCTASGYKFDEYGVSWVRQSPGQGLEWMGWISVYNGKTNYSQNFQGRLTLTTETSTDTAYMELTSLRPDDTAVYYCATDKNWFDPWGPGTLVTVSS VL: DIVLTQSPSASGSPGQSITISCTGTNTDYNYVSWYQHHPGKAPKVIIYDVKKRPSGVPSRFSGSRSGNTATLTVSGLQTEDEADYYCVSYADNNHYVFGSGTKVTVL",binding for fragment […],Staphylococcus aureus HU; SEQ ID NO: 455,high affinity binding
